Assays:
Type in all cases: physicochemical
[1] = Chemical stability of the actives in Composition 2
Experimental: The compositions of the invention are found particularly effective in conserving satisfactory chemical stability of active principles which are sensitive to oxidation, to water and to aqueous media in general. The term “satisfactory chemical stability” refers to a composition which over a period of at least 3 months, respectively at ambient temperature and at 40° C.:
has an active principles content of at least 80%, in particular at least 90% and more particularly at least 95% of the initial weight content.

[2] = Stability of calcitriol in Cetiol SN (HPLC assay against a reference); settings: for Calcitriol content, T0 taken as 100%: calcitriol 30 ppm in Cetiol SN, 0.4% BHT, under nitrogen
Experimental: b) Stability of Calcitriol in Cetiol SN (Cetearyl Isononanoate): A solution is prepared of calcitriol 30 ppm in qs 100% of Cetiol SN in the presence of 0.4% of BHT and kept under nitrogen. The initial time (TO) is taken as 100%.

[3] = Stability of calcitriol in Miglyol 812 (HPLC assay against a reference); settings: for Calcitriol content, T0 taken as 100%: calcitriol 30 ppm in Miglyol 812, 0.4% BHT, under nitrogen
Experimental: The stability of calcitriol was evaluated in the following two oil solvents: Miglyol 812 and Cetiol SN. a) Stability of Calcitriol in Miglyol 812 (Caprylic and 20 Capric Triglycerides): A solution is prepared of calcitriol 30 ppm in qs 100% of Miglyol 812 in the presence of 0.4% of BHT (antioxidant), kept under nitrogen. The initial time (TO) is taken as 100%.

Row | Structure (SMILES) | Chemical stability: content of the active ([1]; T0, AT) | Chemical stability: content of the active ([1]; T15 d, 40° C.) | Chemical stability: content of the active ([1]; T15 d, AT) | Calcitriol content, T0 taken as 100% ([2]; +4° C., T2 weeks) | Calcitriol content, T0 taken as 100% ([2]; +4° C., T4 weeks) | Calcitriol content, T0 taken as 100% ([2]; +40° C., T2 weeks) | Calcitriol content, T0 taken as 100% ([2]; +40° C., T4 weeks) | Calcitriol content, T0 taken as 100% ([2]; AT, T2 weeks) | Calcitriol content, T0 taken as 100% ([2]; AT, T4 weeks) | Stability in solution ([2]; in cetearyl isononanoate, 1 month) | Calcitriol content, T0 taken as 100% ([3]; +4° C., T2 weeks) | Calcitriol content, T0 taken as 100% ([3]; +4° C., T4 weeks) | Calcitriol content, T0 taken as 100% ([3]; +40° C., T2 weeks) | Calcitriol content, T0 taken as 100% ([3]; +40° C., T4 weeks) | Calcitriol content, T0 taken as 100% ([3]; ambient temperature, T2 weeks) | Calcitriol content, T0 taken as 100% ([3]; ambient temperature, T4 weeks) | Stability in solution ([3]; in caprylic/capric triglyceride, 1 month)
1 | CCC(=O)O[C@]1(C(=O)CCl)[C@@H](C)C[C@H]2[C@@H]3CCC4=CC(=O)C=C[C@]4(C)[C@@]3(F)[C@@H](O)C[C@@]21C [CLOBETASOL PROPIONATE, clobetasol 17-propionate] | PROPIONATE: 97.3% | PROPIONATE: 92.3 | PROPIONATE: 95.2 |  |  |  |  |  |  |  |  |  |  |  |  |  | 
2 | C=C1/C(=C\C=C2/CCC[C@]3(C)[C@@H]([C@H](C)CCCC(C)(C)O)CC[C@@H]23)C[C@@H](O)C[C@@H]1O [calcitriol] | CALCITRIOL: 97.6% | CALCITRIOL: 86.8 | CALCITRIOL: 95.1 | 103.7% | 97.9% | 99.4% | 98.1% | 99.6% | 98.7% | stable | 98.2% | 105.2% | 93.1% | 95.0% | 95.8% | 98.0% | stable
